Assay results: publication PMC10873978, “Novel tetrahydroisoquinolines as DHFR and CDK2 inhibitors: synthesis, characterization, anticancer activity and antioxidant properties” (BMC Chemistry, 2024)

Assays:
MCF7 cell line = assay: In vitro cytotoxic activity, MTT method, MCF7; assay type: cell-based, human; conditions: for IC50: Homo sapiens, MCF7, MCF7 cell line, MTT
Method: (§1) Cell lines: The in vitro human breast cancerous cell line (MCF7), lung cancerous cell lines (A549) and normal cell lines were purchased from Serum and Vaccine formulation in Cairo-Egypt.
(§2) In vitro cytotoxic activity of all synthesized compounds against two human breast cell line (MCF7) and lung cell lines (A549) was evaluated according to the MTT method. Firstly, Growth the cell line medium in 96 well tissue culture plate was injected with 10^5 cells/mL (100 uL/plate well) of the cell line and incubated at 37 °C for 24 h to develop a monolayer sheet then the formed growth medium was poured from 96 well microtiter plates after the confluent sheet of cells. […] Secondly, add 0.1 mL of each concentration tetrahydroisoquinoline sample to each plate. The plates were incubated at 37 °C. Thirdly MTT solution (5 mg/mL in PBS) is prepared. Add 20 µL of MTT solution to each well plates. And shaking in 150 rpm for 5 min, to mix the MTT into the media. Then incubate at (37 °C, 5% CO2) for 1–5 h. Finally read the optical density at 560 nm and subtract background at 620 nm.
(§3) In this work, doxorubicin was used as a positive control drug for comparison with the synthesized compounds under the same experimental conditions.

[1] = DPPH scavenging antioxidant activity
Method: The antioxidant activity of ten compounds was determined using DPPH [32–34]. A solution 1: prepared by dissolving DPPH (0.002 g) in ethanol (50 mL etnanol). Solution 2: prepared by dissolving different weights 0.05, 0.01 g of each sample in 1 mL of DMSO then take 10 µL of each sample solution with 1 mL ethanol. Then mix 1 mL of solution 1 with 1 mL of solution 2 then vortex the resulting mixture in the dark for about 30 min. The absorbance of the mixture was measured by spectrophotometer at λmax = 517 nm against blank 1 mL absolute ethanol and compared to the ascorbic acid (Vitamin C).
Ten newly synthesized compounds were studied as in vitro antioxidants by measuring of their DPPH scavenging activity which is represented as a percentage % [32]^. Results are represented by mean ± SD of three replicates. […] The higher dose concentration of 0.05 μg/mL represents higher antioxidant activity. […] The high antioxidant activity is referred to the presence of C=O, NH2, and OH groups like ascorbic acid which can be easily oxidized and reduced and can be used as antioxidant drugs. (Fig. 8 and Table 9).

A549 cell line = assay: In vitro cytotoxic activity, MTT method, A549; conditions: for IC50: Homo sapiens, read-out: IC50 ± SD
Method: as §1, §2, §3

CC(=O)C1C(c2ccc(N(C)C)cc2)c2c(C)nc(SCC(=O)Nc3ccccc3)c(C#N)c2CC1(C)O (stereo not shown) [Compound 7a, 2-[(7-Acetyl-4-cyano-1,6-dimethyl-6-hydroxy-8-(4-N,N-dimethylamino-phenyl)-5,6,7,8-tetrahydroisoquinolin-3-yl)thio]-N-phenylacetamide]
IC50 (MCF7 cell line): 2218 ± 4 nM
Toxicity % (MCF7 cell line; MCF7, 0.0487 µMol): -5.346%
Viability % (MCF7 cell line; MCF7, 0.0487 µMol): 105.8%
Toxicity % (MCF7 cell line; MCF7, 0.0975 µMol): -3.456%
Viability % (MCF7 cell line; MCF7, 0.0975 µMol): 103.5%
Toxicity % (MCF7 cell line; MCF7, 0.195 µMol): -2.859%
Viability % (MCF7 cell line; MCF7, 0.195 µMol): 102.9%
Toxicity % (MCF7 cell line; MCF7, 0.391 µMol): 8.047%
Viability % (MCF7 cell line; MCF7, 0.391 µMol): 91.95%
Toxicity % (MCF7 cell line; MCF7, 0.781 µMol): 23.12%
Viability % (MCF7 cell line; MCF7, 0.781 µMol): 76.88%
Toxicity % (MCF7 cell line; MCF7, 1.562 µMol): 33.82%
Viability % (MCF7 cell line; MCF7, 1.562 µMol): 66.18%
Toxicity % (MCF7 cell line; MCF7, 3.125 µMol): 52.98%
Viability % (MCF7 cell line; MCF7, 3.125 µMol): 47.02%
Toxicity % (MCF7 cell line; MCF7, 6.25 µMol): 71.85%
Viability % (MCF7 cell line; MCF7, 6.25 µMol): 28.15%
Toxicity % (MCF7 cell line; MCF7, 12.5 µMol): 91.95%
Viability % (MCF7 cell line; MCF7, 12.5 µMol): 8.047%
Toxicity % (MCF7 cell line; MCF7, 25 µMol): 97.39%
Viability % (MCF7 cell line; MCF7, 25 µMol): 2.614%
DPPH scavenging, inhibition (%) ([1]; 0.01 µg/mL): 43.26 ± 0.73%
DPPH scavenging, inhibition (%) ([1]; 0.05 µg/mL): 62.96 ± 0.73%
Toxicity % (A549 cell line; A549, Conc. 0.04875 µMol): 0.09882%
Viability % (A549 cell line; A549, Conc. 0.04875 µMol): 99.9%
Toxicity % (A549 cell line; A549, Conc. 0.0975 µMol): 0.1346%
Viability % (A549 cell line; A549, Conc. 0.0975 µMol): 99.87%
Toxicity % (A549 cell line; A549, Conc. 0.195 µMol): 0.168%
Viability % (A549 cell line; A549, Conc. 0.195 µMol): 99.83%
Toxicity % (A549 cell line; A549, Conc. 0.391 µMol): 13.91%
Viability % (A549 cell line; A549, Conc. 0.391 µMol): 86.09%
Toxicity % (A549 cell line; A549, Conc. 0.781 µMol): 29.94%
Viability % (A549 cell line; A549, Conc. 0.781 µMol): 70.06%
Toxicity % (A549 cell line; A549, Conc. 1.562 µMol): 41.33%
Viability % (A549 cell line; A549, Conc. 1.562 µMol): 58.67%
Toxicity % (A549 cell line; A549, Conc. 3.125 µMol): 53.33%
Viability % (A549 cell line; A549, Conc. 3.125 µMol): 46.67%
Toxicity % (A549 cell line; A549, Conc. 6.25 µMol): 80.11%
Viability % (A549 cell line; A549, Conc. 6.25 µMol): 19.89%
Toxicity % (A549 cell line; A549, Conc. 12.5 µMol): 91.33%
Viability % (A549 cell line; A549, Conc. 12.5 µMol): 8.669%
Toxicity % (A549 cell line; A549, Conc. 25 µMol): 96.98%
Viability % (A549 cell line; A549, Conc. 25 µMol): 3.024%
IC50 (A549 cell line): 1586 ± 1 nM

CC(=O)C1C(c2ccc(N(C)C)cc2)c2c(C)nc(SCC(=O)Nc3ccc(C)cc3)c(C#N)c2CC1(C)O (stereo not shown) [Compound 7b, 2-[(7-Acetyl-4-cyano-1,6-dimethyl-6-hydroxy-8-(4-N,N-dimethylamino-phenyl)-5,6,7,8-tetrahydroisoquinolin-3-yl)thio]-N-(4-tolyl)acetamide]
IC50 (MCF7 cell line): 474 ± 6 nM
Toxicity % (MCF7 cell line; MCF7, 0.0487 µMol): 4.569%
Viability % (MCF7 cell line; MCF7, 0.0487 µMol): 95.4311%
Toxicity % (MCF7 cell line; MCF7, 0.0975 µMol): 6.234%
Viability % (MCF7 cell line; MCF7, 0.0975 µMol): 93.77%
Toxicity % (MCF7 cell line; MCF7, 0.195 µMol): 8.333%
Viability % (MCF7 cell line; MCF7, 0.195 µMol): 91.67%
Toxicity % (MCF7 cell line; MCF7, 0.391 µMol): 39.62%
Viability % (MCF7 cell line; MCF7, 0.391 µMol): 60.38%
Toxicity % (MCF7 cell line; MCF7, 0.781 µMol): 74.92%
Viability % (MCF7 cell line; MCF7, 0.781 µMol): 25.08%
Toxicity % (MCF7 cell line; MCF7, 1.562 µMol): 82.39%
Viability % (MCF7 cell line; MCF7, 1.562 µMol): 17.61%
Toxicity % (MCF7 cell line; MCF7, 3.125 µMol): 86.44%
Viability % (MCF7 cell line; MCF7, 3.125 µMol): 13.56%
Toxicity % (MCF7 cell line; MCF7, 6.25 µMol): 93.1%
Viability % (MCF7 cell line; MCF7, 6.25 µMol): 6.904%
Toxicity % (MCF7 cell line; MCF7, 12.5 µMol): 96.61%
Viability % (MCF7 cell line; MCF7, 12.5 µMol): 3.391%
Toxicity % (MCF7 cell line; MCF7, 25 µMol): 96.57%
Viability % (MCF7 cell line; MCF7, 25 µMol): 3.431%
DPPH scavenging, inhibition (%) ([1]; 0.01 µg/mL): 48.59 ± 0.73%
DPPH scavenging, inhibition (%) ([1]; 0.05 µg/mL): 52.19 ± 0.58%
Toxicity % (A549 cell line; A549, Conc. 0.04875 µMol): 0.2467%
Viability % (A549 cell line; A549, Conc. 0.04875 µMol): 99.7534%
Toxicity % (A549 cell line; A549, Conc. 0.0975 µMol): 0.3467%
Viability % (A549 cell line; A549, Conc. 0.0975 µMol): 99.6534%
Toxicity % (A549 cell line; A549, Conc. 0.195 µMol): 0.5128%
Viability % (A549 cell line; A549, Conc. 0.195 µMol): 99.49%
Toxicity % (A549 cell line; A549, Conc. 0.391 µMol): 14.2%
Viability % (A549 cell line; A549, Conc. 0.391 µMol): 85.8%
Toxicity % (A549 cell line; A549, Conc. 0.781 µMol): 35.82%
Viability % (A549 cell line; A549, Conc. 0.781 µMol): 64.18%
Toxicity % (A549 cell line; A549, Conc. 1.562 µMol): 53.81%
Viability % (A549 cell line; A549, Conc. 1.562 µMol): 46.19%
Toxicity % (A549 cell line; A549, Conc. 3.125 µMol): 72.39%
Viability % (A549 cell line; A549, Conc. 3.125 µMol): 27.61%
Toxicity % (A549 cell line; A549, Conc. 6.25 µMol): 86.39%
Viability % (A549 cell line; A549, Conc. 6.25 µMol): 13.61%
Toxicity % (A549 cell line; A549, Conc. 12.5 µMol): 93.85%
Viability % (A549 cell line; A549, Conc. 12.5 µMol): 6.154%
Toxicity % (A549 cell line; A549, Conc. 25 µMol): 96.41%
Viability % (A549 cell line; A549, Conc. 25 µMol): 3.59%
IC50 (A549 cell line): 987 ± 2 nM
